In experiment [1] the test system is Serum. Kind of experiment: Antiinflammatory activity in bovine serum assessed as denaturation of albumin at 0.25 mM after 10 mins by spectrophotometry. The note with it: Bos taurus. It is filed as functional.
In experiment [2] the test system is Rattus norvegicus. Put plainly: Antiinflammatory activity in rat assessed as inhibition of carrageenan-induced hind paw edema at 100 mg/kg, po measured after 3 hrs of carrageenan challenge. The experiment is classed as functional. In general terms: Carrageenan injected into the paw causes an acute inflammation.
The target in experiment [3] is Dipeptidyl peptidase 4 (Homo sapiens) (UniProt P27487). Put plainly: Inhibition of DPP4 at 500 ug/ml after 30 mins by spectrophotometry.
Experiment [4] deals with Serum. Put plainly: Antiinflammatory activity in bovine serum assessed as denaturation of albumin at 1 mM after 10 mins by spectrophotometry. The note with it: Bos taurus. It is filed as functional.
Experiment [5] deals with Mus musculus. Put plainly: Antihyperglycemic activity in mouse assessed as decrease in blood glucose AUC level at 100 mg/kg, po administered before glucose challenge measured after 120 mins post glucose infusion. On the set-up: dose 100 mg/kg. The experiment is classed as functional, organism-based.
The subject of experiment [6] is Mus musculus. Put plainly: Antihyperglycemic activity in mouse assessed as decrease in blood glucose AUC level at 100 mg/kg, ip administered before glucose challenge measured after 120 mins post glucose infusion. The experiment is classed as functional. The following applies: 2 h, route intraperitoneal.
Experiment [7] deals with Rattus norvegicus. Kind of experiment: Antiinflammatory activity in rat assessed as inhibition of complete Freund's adjuvant-induced paw swelling at 100 mg/kg, po administered on day 21 post induction of inflammation measured on day 35. The experiment is classed as functional.
In experiment [8] the test system is Serum. Kind of experiment: Antiinflammatory activity in bovine serum assessed as denaturation of albumin at 5 mM after 10 mins by spectrophotometry. The experiment is classed as functional. The following applies: Bos taurus.
In experiment [9] the test system is Rattus norvegicus. Kind of experiment: Antiinflammatory activity in rat assessed as inhibition of complete Freund's adjuvant-induced paw swelling at 5 mg/kg, po administered on day 21 post induction of inflammation measured on day 35. It is filed as functional.
For experiment [10], the system named is Serum. Kind of experiment: Antiinflammatory activity in bovine serum assessed as denaturation of albumin at 0.01 mM after 10 mins by spectrophotometry. The experiment is classed as functional. The following applies: Bos taurus.

This passage reports inhibition and inhibition in vivo results from ChEMBL document CHEMBL1641367, “Antioxidant, anti-inflammatory and anti-hyperglycaemic activities of heterocyclic homoprostanoid derivatives” (2011).

Activity calls are given as the source filed them. The rule behind the calls is not given here.

Chain of Dipeptidyl peptidase 4 (Homo sapiens) (P27487 whole entry, looked up): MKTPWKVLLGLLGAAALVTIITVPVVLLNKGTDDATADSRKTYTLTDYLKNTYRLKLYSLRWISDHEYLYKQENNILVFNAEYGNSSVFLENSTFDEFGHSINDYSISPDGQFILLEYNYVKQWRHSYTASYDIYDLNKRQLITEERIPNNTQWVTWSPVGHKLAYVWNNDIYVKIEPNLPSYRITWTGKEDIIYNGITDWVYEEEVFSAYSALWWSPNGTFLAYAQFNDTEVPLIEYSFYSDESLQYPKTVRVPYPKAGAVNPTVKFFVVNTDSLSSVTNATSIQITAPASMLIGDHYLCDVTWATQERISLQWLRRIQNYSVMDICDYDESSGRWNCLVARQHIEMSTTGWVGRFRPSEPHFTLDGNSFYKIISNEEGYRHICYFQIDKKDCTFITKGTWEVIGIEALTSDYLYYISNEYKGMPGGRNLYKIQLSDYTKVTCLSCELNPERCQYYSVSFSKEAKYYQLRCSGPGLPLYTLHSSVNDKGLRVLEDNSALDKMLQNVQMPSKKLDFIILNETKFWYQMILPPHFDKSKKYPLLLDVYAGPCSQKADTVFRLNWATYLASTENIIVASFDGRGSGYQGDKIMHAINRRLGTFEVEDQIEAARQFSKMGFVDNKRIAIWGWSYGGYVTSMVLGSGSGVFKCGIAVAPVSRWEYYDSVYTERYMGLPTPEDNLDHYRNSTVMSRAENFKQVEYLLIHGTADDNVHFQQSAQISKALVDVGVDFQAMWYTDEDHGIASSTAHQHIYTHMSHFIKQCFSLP

For the compound `CCCCCCCCc1nc(=S)[nH]nc1CCCCCCCC(=O)O`, the inhibition – broadly, the change of the read-out against control, counted positive when it falls – at 250 µM in experiment [1] worked out at 14%. In addition, the inhibition in vivo (commonly the relative decrease from the control value, in per cent) at 100 mg/kg in [2] was -3.82%. Also, the inhibition in experiment [3] amounted to 58.3%.
`CCCCCCCCC1=NC(=O)N=C1CCCCCCCC(=O)O`: in [2], the inhibition in vivo at 100 mg/kg is -12.9%. Also, the inhibition at 1000 µM in experiment [4] worked out at 76.7%.
In the case of `CCCCCCCCc1nc2ccc(Cl)cc2nc1CCCCCCCC(=O)O`, the inhibition result in [5] was “inactive”. Moreover, the results for the inhibition in vivo at 100 mg/kg in experiment [6], in experiment [2] and in experiment [7] were 36.7%, 26.7% and 44.2%, respectively. Moreover, in experiment [4], the inhibition at 1000 µM worked out at 57.1%. Further, the inhibition in [3] turned out to be 45.5%.
Regarding `CCCCCCCCC1=NC(=S)N=C1CCCCCCCC(=O)O`, the inhibition in vivo at 100 mg/kg in experiment [2] is -7.17%. Moreover, the inhibition at 1000 µM in experiment [4] amounted to 78.3%.
As to `CCCCCCCCC1=NC(=S)N=C1CCCCCCCC(=O)NN1C(=O)CSC1c1ccc(Cl)cc1` (stereo unspecified), the inhibition in vivo at 100 mg/kg in experiment [2] is -21.7%.
As for `CCCCCCC(CC1OC(C)(C)OC1CCCCCCCC(=O)OC)OC(C)=O` (stereo unspecified), the inhibition at 5000 µM in experiment [8] came to 48.5%.
Regarding `CCCCCCCCC1=NC(=O)CC(=O)N=C1CCCCCCCC(=O)O`, the inhibition at 250 µM in [1] amounted to 37%. For the same compound, in experiment [2], the inhibition in vivo at 100 mg/kg was 1.74%. For the same compound, the inhibition in [3] was 12.3%.
Consider `CCCCCCCCc1nc2ccc([N+](=O)[O-])cc2nc1CCCCCCCC(=O)O`, for which, in experiment [5], the inhibition entry is “inactive”. Further, the inhibition in vivo at 100 mg/kg in [6] worked out at 45.1%; in experiment [2] it was 39.6%; in experiment [7], 53.3%. The inhibition at 1000 µM in [4] was 36.9%. Also, the inhibition in [3] came out at 64%.
As for `CCCCCCCCC1OC(C)(C)OC1CCCCCCCC(=O)OCC` (stereo unspecified), the inhibition at 5000 µM in experiment [8] came out at 46.4%.
As to `CCCCCCCCc1nc2ccccc2nc1CCCCCCCC(=O)O`, the inhibition in vivo at 100 mg/kg in experiment [2] worked out at 34.4%. The inhibition at 1000 µM in experiment [4] is 75.7%. For the same compound, the inhibition in experiment [3] turned out to be 73.6%.
Regarding `O=C(O)Cc1ccccc1Nc1c(Cl)cccc1Cl` [DICLOFENAC], in [8], the inhibition at 5000 µM came out at 56.3%. Besides, the inhibition in vivo at 5 mg/kg in [9] is 35.3%. In [2], the inhibition in vivo at 100 mg/kg worked out at 38.2%.
Turning to `CCCCCCCCC1=NC(=O)N=C1CCCCCCCC(=O)OCCO[N+](=O)[O-]`, the inhibition in vivo at 100 mg/kg in experiment [2] was -22.8%. Also, in experiment [4], the inhibition at 1000 µM came to 25.1%. Also, the inhibition in experiment [3] was -6.22%.
Turning to `CCCCCCCCc1nc2ccc(C)cc2nc1CCCCCCCC(=O)O`, the inhibition in vivo at 100 mg/kg in experiment [2] came to 12.5%. Further, in experiment [4], the inhibition at 1000 µM was determined as 37.4%. Also, in experiment [3], the inhibition turned out to be 88.1%.
For the compound `CCCCCCCCc1nc2ccccc2nc1CCCCCCCC(=O)NN`, the inhibition at 1000 µM in experiment [4] is 3.72%.
As for `CCCCCCCCC1=NC(=O)N=C1CCCCCCCC(=O)NN`, the inhibition at 1000 µM in experiment [4] is 31.4%.
`CCCCCCCCC1=NC(=S)N=C1CCCCCCCC(=O)NN`: the inhibition at 10 µM in [10] was 37.2%.
As for `CCCCCCCCC1=NC(=O)N=C1CCCCCCCC(=O)NN1C(=O)CSC1c1ccc(Cl)cc1` (stereo unspecified), the inhibition in vivo at 100 mg/kg in [2] was 0%.
As to `CCCCCCCCc1nonc1CCCCCCCC(=O)O`, the inhibition at 5000 µM in experiment [8] was found to be 25.4%. The inhibition in experiment [3] stood at 2.2%.
As for `CCCCCCCCC1=NC(=S)N=C1CCCCCCCC(=O)OCCO[N+](=O)[O-]`, the inhibition at 10 µM in [10] came out at 38.1%. Besides, in experiment [2], the inhibition in vivo at 100 mg/kg is -22.4%. Further, the inhibition in experiment [3] worked out at 23.3%.
